The text below walks through data of publication PMC5651845, “A New Generation of Arachidonic Acid Analogues as Potential Neurological Agent Targeting Cytosolic Phospholipase A2” (Scientific Reports, 2017).

In one series the target is T1, recombinant cPLA2 (Homo sapiens, UniProt P47712).
T1 construct: purchased US Biological P4074-03R
T1 sequence (P47712 1-749): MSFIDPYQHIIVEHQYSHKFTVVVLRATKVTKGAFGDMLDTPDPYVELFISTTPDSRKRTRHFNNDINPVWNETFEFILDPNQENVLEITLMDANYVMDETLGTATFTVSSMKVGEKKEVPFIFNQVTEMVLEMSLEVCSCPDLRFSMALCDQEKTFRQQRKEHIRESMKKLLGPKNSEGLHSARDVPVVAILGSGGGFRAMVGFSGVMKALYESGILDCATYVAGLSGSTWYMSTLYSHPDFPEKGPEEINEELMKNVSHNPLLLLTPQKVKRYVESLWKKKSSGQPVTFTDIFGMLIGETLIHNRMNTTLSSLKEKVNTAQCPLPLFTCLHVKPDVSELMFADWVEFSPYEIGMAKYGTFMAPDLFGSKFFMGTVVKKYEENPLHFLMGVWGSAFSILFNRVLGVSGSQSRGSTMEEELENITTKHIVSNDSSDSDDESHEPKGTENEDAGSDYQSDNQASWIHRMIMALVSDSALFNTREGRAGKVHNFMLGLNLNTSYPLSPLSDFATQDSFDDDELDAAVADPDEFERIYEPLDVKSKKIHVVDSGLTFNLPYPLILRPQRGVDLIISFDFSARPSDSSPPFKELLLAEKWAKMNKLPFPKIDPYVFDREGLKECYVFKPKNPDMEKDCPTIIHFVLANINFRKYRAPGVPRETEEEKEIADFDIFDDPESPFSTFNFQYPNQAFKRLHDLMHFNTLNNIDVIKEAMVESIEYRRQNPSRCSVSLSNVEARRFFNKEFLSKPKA
Nature of the series: EnzChek phospholipase A2 fluorogenic assay (IC50). In kind it is biochemical. How it is done: The assay was conducted as described above. Instead of adding a fixed concentration of the test compound, various concentrations of compound were reconstituted in DMSO. 48 μL of 1X phospholipase A2 reaction buffer were added into each well of a 96-wells plate. This was followed by addition of 1 μL of recombinant cPLA2 (P4074-03R, US Biological) and 1 μL of the respective concentration of the test compound dissolved in DMSO. The reaction was initiated by adding 50 μL of the substrate solution and incubating at room temperature for 1 h. Fluorescence was measured using a Varioskan plate reader by exciting at 485 nm, while fluorescence emission was detected at 515 nm. Positive control was performed when 1 μL of test compound was replaced by vehicle DMSO. IC50 was expressed as the mean value of duplicate wells from three experiments.

For another series, the system named is BV-2 cells. Nature of the series: MTS cell proliferation assay on BV-2 cells. It is filed as cell-based, murine. The note with it: 10 μM, 48 h and 72 h, vs vehicle control. How it is done:
To explore whether the inhibitors are cytotoxic, MTS assay were conducted on BV-2 cells, a murine microglial cell line derived from post-natal mouse cerebella, and HEK293T cells that are derived from human embryonic kidney. Both cell types were treated with 10 μM of 1a, 2g and 2i for 48 h and 72 h (Fig. 3A,B). Dimethyl sulfoxide (DMSO) vehicle control was also included as the compounds were dissolved in DMSO.
Cells were plated on a 96-wells plate and grown for 24 h to a density of 8000 cells per well for both HEK293T and BV-2 cells. Cells were cultured at 37 °C under a 5% CO2 environment in 100 μL of culture medium. Thereafter, the compound of interest dissolved in culture medium at a concentration of 10 μM was replaced into each well. DMSO was added as vehicle in the control group. 3 biological replicates were performed. The plates were then incubated at 37 °C with 5% CO2 for 48 h and 72 h. At each individual time point, 20 μL of CellTiter 96® AQueous One Solution (MTS reagent) was added into each well and re-incubated at 37 °C with 5% CO2 without light for 3 h. Colorimetric readings were taken using a Varioskan plate reader at 490 nm and analyzed. Three independent biological repeats with four technical replicates were performed.
In general terms: Tetrazolium assays rely on reduction of a dye to a coloured formazan, in cell work by metabolically active cells.

A short description of series [1]: PAMPA with porcine brain lipids (BBB permeation). The note with it: pig, pH 7.4. How it is done: Thus to explore whether 2i is able to penetrate into the brain, we used PAMPA with porcine brain lipids as the lipid barrier. […] A minimum Pe of […] × 10^−6 cm/s has been cited as the threshold for permeability across the blood brain barrier.
The Parallel Artificial Membrane Permeability Assay (PAMPA) was used to determine the effective permeability (Pe) of 2i. The method reported by Di et al.[53] was followed with modifications. Determinations were carried out on MultiScreen-IP PAMPA assay (donor) plates (MAIPNTR10) and MultiScreen Receiver Plates (MATRNPS50) from Millipore Corporation (USA) with porcine polar brain lipids (Avanti Polar Lipids Inc, Alabaster, AL) as the lipid barrier.
An aliquot (5 µL) of 2% porcine brain lipids in dodecane (ReagentPlus®, Sigma Aldrich, USA) was dispensed into the donor well. A stock solution (5 mM) of 2i prepared in DMSO was diluted with 1x phosphate buffer (PBS, pH 7.4) to give a 50 µM solution. An aliquot (300 µL) of the solution was dispensed into the donor well and an equal volume of buffer (1xPBS with 1% DMSO) was added to the corresponding acceptor well. The donor and acceptor plates were assembled, the unit was placed in a humidified box and gently agitated on a mini shaker at room temperature (25 °C) for 16 h. After this time, aliquots (200 µL) were withdrawn from the donor and acceptor wells, diluted separately to 1 mL with PBS, and quantified at λmax of 290 nm on a Shimadzu UV-1800 Spectrophotometer.
300 µL aliquots of stock solutions (500 µM, 1xPBS, 0.1% DMSO) were dispensed to donor wells as described earlier. Quantification was by UV at λmax of 272 nm (caffeine), 284 nm (carbamazepine), 330 nm (quinidine), 280 nm (dopamine) and 288 nm (propanolol). […] Pe was obtained from (3):3 Pe=−2.303×{VAVD/[(VA+VD)×A×t]}×log{1−[(VA+VD)/(VD.S)]×CA(t)/CD(0)} where VA and VD are the volumes of acceptor (cm^3) and donor (cm^3) wells respectively, A is the area of the surface area of the membrane (0.24 cm^2), t is the permeation time (s). The Pe of each compound was obtained from at least 3 separate experiments using 2 different stock solutions. For each independent determination, triplicates (3 wells) were run for each compound.
For orientation: In PAMPA a lipid-coated filter parts donor from acceptor wells.

Series [2] in a line: Aqueous solubility (Multiscreen Solubility filter plates). It is filed as physicochemical. The note with it: aqueous buffer, kinetic from dmso stock; pH 7.4, 24 h, 25 °C. Here is the method: Solubility determinations were carried out on Multiscreen® Solubility filter plates (Millipore-MSSLBPC10) from Millipore Corporation (MA, USA) following the protocol (PC2445EN00) from the manufacturer.

As to `CCCCC/C=C\C/C=C\C/C=C\C/C=C\CCCCC(=O)Nc1cccc(C(=O)O)c1` [2i], the IC50 on recombinant cPLA2 came out at 2.9 ± 0.2 µM. Besides, the “fold stronger cPLA2 inhibition than 1a (from IC50)” value on recombinant cPLA2 (relative to 1a) was 5.5 fold. In the series with BV-2 cells, the “cytotoxicity (MTS) on BV-2 cells” value was “no significant toxic effects”. Besides, the Papp at 16 h, 50 µM in series [1] is 12.3 ± 1.46 ×10⁻⁶ cm/s. This molecule also registered a solubility at 24 h in series [2] of more than 100 µM.

In general, IC50 refers to the concentration at which inhibition is half-maximal. As usually defined, the Papp is a coefficient for how fast a substance crosses the barrier. Low readings indicate poor permeation, high ones ready permeation. As a reminder, the solubility is the dissolved amount per volume that the medium holds. A high value points to a readily soluble substance.
